These results are taken from ChEMBL document CHEMBL5303304, “EUbOPEN Chemogenomics Library - IncuCyte” (2023).

Type in all cases: toxicity, cell-based
Data set [1] concerns Fibroblast. Nature of the data set: Incucyte cell viability with human fibroblast. The following applies: 10 µM, compound concentration 10 uM.
Data set [2] has as its system U2OS. In words: Incucyte cell viability with U2OS. The conditions noted are these: human, 10 µM, compound concentration 10 uM.
Data set [3] relates to HEK-293T. In words: Incucyte cell viability with HEK293T. The following applies: human, 10 µM, compound concentration 10 uM.
Further: unitless GR value; below 1 slowed growth and below 0 cell loss.

Turning to `COc1cc(N(C)c2ccnc3ccc(C(F)(F)F)cc23)cc(OC)c1OC`, the “Growth Rate” value in data set [1] (0 h, replicate number 1) is given as 0.97; in data set [1] (6 h, replicate number 1), -0.52; in data set [1] (6 h, replicate number 2), 0.41; in data set [1] (12 h, replicate number 2), 0.94; in data set [1] (18 h, replicate number 2), 0.91; in data set [2] (0 h, replicate number 2), 0.66. Besides, the “Growth Rate” value in data set [2] (6 h, replicate number 2) is 0.7; in data set [2] (12 h, replicate number 1), 0.9; in data set [2] (12 h, replicate number 2), 0.88; in data set [2] (18 h, replicate number 2), 0.92; in data set [2] (24 h, replicate number 1), 1; in data set [2] (24 h, replicate number 2), 0.84. Moreover, the “Growth Rate” value in data set [3] (0 h, replicate number 2) is on record as -1; in data set [3] (6 h, replicate number 2), -0.32; in data set [3] (12 h, replicate number 2) it was 0.01; in data set [3] (18 h, replicate number 2) it was 0.27; in data set [3] (24 h, replicate number 2) it was 0.48.
With `CO[C@H](C)CN1CC[C@@]2(C)c3ccc(O)cc3C[C@@H]1C2(C)C.Cl`, the “Growth Rate” value amounted to 0.54 in data set [1] (0 h, replicate number 2); 0.46 in data set [1] (6 h, replicate number 1); 0.74 in data set [1] (6 h, replicate number 2); 0.6 in data set [1] (12 h, replicate number 1); 0.79 in data set [1] (18 h, replicate number 1); 0.96 in data set [1] (24 h, replicate number 1). In addition, the “Growth Rate” value in data set [2] (0 h, replicate number 2) was determined as 0.71; in data set [2] (6 h, replicate number 1), 0.63; in data set [2] (6 h, replicate number 2) it was 0.94; in data set [2] (12 h, replicate number 1) it was 0.93; in data set [2] (12 h, replicate number 2) it was 0.77; in data set [2] (18 h, replicate number 1), 0.87. The “Growth Rate” value in data set [2] (24 h, replicate number 1) was 0.87; in data set [2] (24 h, replicate number 2), 0.82; in data set [3] (0 h, replicate number 1) it was 0.75; in data set [3] (0 h, replicate number 2), 0.63.
On to `O=C(Nc1ccc(Cl)c(-c2ccccn2)c1)c1cccc(COc2ccc(Br)cc2CNCCO)c1.O=CO`, for which the “Growth Rate” value was -0.98 in data set [1] (0 h, replicate number 1); 0.59 in data set [1] (0 h, replicate number 2); 0.09 in data set [1] (6 h, replicate number 2); 0.51 in data set [1] (12 h, replicate number 1); -0.14 in data set [1] (12 h, replicate number 2); 0.29 in data set [1] (18 h, replicate number 1). For the same compound, the “Growth Rate” value in data set [1] (18 h, replicate number 2) is reported as -0.28; in data set [1] (24 h, replicate number 1), 0.25; in data set [1] (24 h, replicate number 2), -0.36; in data set [2] (6 h, replicate number 1), 0.38; in data set [2] (6 h, replicate number 2), 0.78; in data set [2] (12 h, replicate number 1) it was 0.61. Further, the “Growth Rate” value is on record as 0.6 in data set [2] (12 h, replicate number 2); 0.3 in data set [2] (18 h, replicate number 1); 0.36 in data set [2] (18 h, replicate number 2); 0.53 in data set [2] (24 h, replicate number 1); 0.33 in data set [2] (24 h, replicate number 2); -0.57 in data set [3] (6 h, replicate number 1). For the same compound, the “Growth Rate” value was -0.56 in data set [3] (6 h, replicate number 2); -0.44 in data set [3] (12 h, replicate number 1); -0.32 in data set [3] (12 h, replicate number 2); -0.3 in data set [3] (18 h, replicate number 1); -0.2 in data set [3] (18 h, replicate number 2); -0.2 in data set [3] (24 h, replicate number 1). Also, the “Growth Rate” value in data set [3] (24 h, replicate number 2) is listed as -0.07.
`CCOc1ccc(S(=O)(=O)Nc2ccc(Cl)cc2C#Cc2cnc(C(=O)[O-])cc2OC)c2ncccc12.[K+]`: the “Growth Rate” value in data set [1] (0 h, replicate number 1) is listed as -0.78; in data set [1] (6 h, replicate number 2) it was 0.49; in data set [1] (12 h, replicate number 2), 0.49; in data set [1] (18 h, replicate number 1), 1; in data set [1] (18 h, replicate number 2) it was 0.43; in data set [1] (24 h, replicate number 1), 0.99. Further, the “Growth Rate” value was 0.53 in data set [1] (24 h, replicate number 2); -0.87 in data set [2] (0 h, replicate number 1); 0.5 in data set [2] (0 h, replicate number 2); 0.58 in data set [2] (6 h, replicate number 2); 0.95 in data set [2] (12 h, replicate number 1); -0.91 in data set [2] (12 h, replicate number 2). Moreover, the “Growth Rate” value in data set [2] (18 h, replicate number 1) is 0.94; in data set [2] (18 h, replicate number 2), -0.85; in data set [2] (24 h, replicate number 2) it was 0.81; in data set [3] (0 h, replicate number 1) it was 0.28; in data set [3] (0 h, replicate number 2), -0.2; in data set [3] (6 h, replicate number 2) it was 0.66. Further, the “Growth Rate” value is recorded as 0.97 in data set [3] (12 h, replicate number 2); 0.87 in data set [3] (18 h, replicate number 2); 0.98 in data set [3] (24 h, replicate number 1); 0.87 in data set [3] (24 h, replicate number 2).
`CN(C(=O)c1ccccc1)c1ccc2c(c1)nc(NC(=O)c1ccc(Br)s1)n2CCC(N)=O`: the “Growth Rate” value in data set [1] (0 h, replicate number 1) is -0.8; in data set [1] (0 h, replicate number 2) it was -0.39; in data set [1] (24 h, replicate number 1) it was 0.96; in data set [2] (0 h, replicate number 1) it was -1; in data set [2] (6 h, replicate number 2) it was 0.89; in data set [2] (12 h, replicate number 2), 0.72. Further, the “Growth Rate” value in data set [2] (18 h, replicate number 1) is 0.9; in data set [2] (18 h, replicate number 2) it was 0.71; in data set [2] (24 h, replicate number 2) it was 0.68; in data set [3] (6 h, replicate number 1), 0.09; in data set [3] (6 h, replicate number 2) it was 0.04; in data set [3] (12 h, replicate number 1), 0.33. The “Growth Rate” value was 0.26 in data set [3] (12 h, replicate number 2); 0.34 in data set [3] (18 h, replicate number 1); 0.3 in data set [3] (18 h, replicate number 2); 0.4 in data set [3] (24 h, replicate number 1); 0.34 in data set [3] (24 h, replicate number 2).
With `CN(C)CCCN1c2ccccc2Sc2ccc(Cl)cc21.Cl` [CHLORPROMAZINE HYDROCHLORIDE], the “Growth Rate” value in data set [1] (0 h, replicate number 2) was 0.33; in data set [1] (6 h, replicate number 1), -0.57; in data set [1] (12 h, replicate number 1), -0.38; in data set [1] (18 h, replicate number 1) it was -0.35; in data set [1] (24 h, replicate number 1) it was -0.22; in data set [2] (0 h, replicate number 1), -0.42. The “Growth Rate” value is listed as -0.21 in data set [2] (0 h, replicate number 2); -0.06 in data set [2] (6 h, replicate number 2); 0.42 in data set [2] (12 h, replicate number 1); 0.12 in data set [2] (12 h, replicate number 2); 0.77 in data set [2] (18 h, replicate number 1); 0.33 in data set [2] (18 h, replicate number 2). Besides, the “Growth Rate” value in data set [2] (24 h, replicate number 1) was 0.91; in data set [2] (24 h, replicate number 2) it was 0.39; in data set [3] (0 h, replicate number 2), -0.89; in data set [3] (6 h, replicate number 1) it was 0.64; in data set [3] (6 h, replicate number 2), 0.48; in data set [3] (12 h, replicate number 1), 0.66. Further, the “Growth Rate” value in data set [3] (12 h, replicate number 2) amounted to 0.52; in data set [3] (18 h, replicate number 1), 0.18; in data set [3] (18 h, replicate number 2) it was 0.37; in data set [3] (24 h, replicate number 1), 0.15; in data set [3] (24 h, replicate number 2), 0.19.
On to `O[C@]1(C(F)(F)F)CCCC[C@H]1Nc1ccc(F)cc1` [BAY-390], for which the “Growth Rate” value is 0.2 in data set [1] (0 h, replicate number 2); 0.19 in data set [1] (6 h, replicate number 1); 0.69 in data set [1] (12 h, replicate number 1); 0.78 in data set [1] (18 h, replicate number 1); 0.89 in data set [1] (24 h, replicate number 1); -0.18 in data set [2] (0 h, replicate number 1). Moreover, the “Growth Rate” value in data set [2] (0 h, replicate number 2) was found to be 0.62; in data set [2] (6 h, replicate number 1), 0.4; in data set [2] (6 h, replicate number 2) it was 0.7; in data set [2] (12 h, replicate number 1), 0.57; in data set [2] (12 h, replicate number 2), 0.8; in data set [2] (18 h, replicate number 1), 0.69. In addition, the “Growth Rate” value in data set [2] (24 h, replicate number 1) is 0.74; in data set [2] (24 h, replicate number 2), 0.93; in data set [3] (0 h, replicate number 1), -0.2; in data set [3] (0 h, replicate number 2), -0.23; in data set [3] (6 h, replicate number 2), 0.5; in data set [3] (12 h, replicate number 2), 0.95.
In the case of `COCCc1ccc(-c2c(C)nc3c(N4CCOCC4)ccnn23)cn1` [JNJ-42396302], the “Growth Rate” value is listed as 0.07 in data set [1] (0 h, replicate number 1); 0.78 in data set [1] (6 h, replicate number 2); 0.86 in data set [1] (12 h, replicate number 1); 0.81 in data set [1] (12 h, replicate number 2); 0.88 in data set [1] (18 h, replicate number 1); 0.84 in data set [1] (18 h, replicate number 2). The “Growth Rate” value in data set [1] (24 h, replicate number 1) is given as 0.86; in data set [1] (24 h, replicate number 2), 0.91; in data set [2] (0 h, replicate number 1), -0.6; in data set [2] (0 h, replicate number 2), 0.07; in data set [2] (6 h, replicate number 2) it was 0.56; in data set [2] (12 h, replicate number 1) it was 0.98. For the same compound, the “Growth Rate” value in data set [2] (12 h, replicate number 2) is listed as 0.93; in data set [2] (18 h, replicate number 2), 0.99; in data set [3] (0 h, replicate number 2) it was 0.44; in data set [3] (18 h, replicate number 1) it was 0.91; in data set [3] (24 h, replicate number 1), 0.86.
For `C=CC(=O)Nc1cc(-c2nn(C3CCC(N4CCN(C(C)=O)CC4)CC3)c3ncnc(N)c23)ccc1Oc1ccccc1` (stereo not given), the “Growth Rate” value in data set [1] (6 h, replicate number 1) is given as -0.52; in data set [1] (6 h, replicate number 2), -0.24; in data set [1] (12 h, replicate number 1) it was -0.15; in data set [1] (12 h, replicate number 2) it was 0.07; in data set [1] (18 h, replicate number 1), 0.03; in data set [1] (18 h, replicate number 2), 0.33. Also, the “Growth Rate” value in data set [1] (24 h, replicate number 1) was 0.21; in data set [1] (24 h, replicate number 2), 0.67; in data set [2] (0 h, replicate number 2) it was -0.83; in data set [2] (6 h, replicate number 1) it was -0.85; in data set [2] (6 h, replicate number 2) it was -0.6; in data set [2] (12 h, replicate number 1), -0.62. Besides, the “Growth Rate” value is given as -0.57 in data set [2] (12 h, replicate number 2); -0.59 in data set [2] (18 h, replicate number 1); -0.48 in data set [2] (18 h, replicate number 2); -0.59 in data set [2] (24 h, replicate number 1); -0.41 in data set [2] (24 h, replicate number 2); -0.71 in data set [3] (6 h, replicate number 1). Besides, the “Growth Rate” value in data set [3] (6 h, replicate number 2) is reported as -0.92; in data set [3] (12 h, replicate number 1), -0.48; in data set [3] (12 h, replicate number 2) it was -0.56; in data set [3] (18 h, replicate number 1) it was -0.4; in data set [3] (18 h, replicate number 2), -0.22; in data set [3] (24 h, replicate number 1), -0.31. Further, the “Growth Rate” value in data set [3] (24 h, replicate number 2) amounted to 0.09.
